# In patent publication US10278973B2, “Hydroxyl purine compounds and use thereof” (GUANGDONG RAYNOVENT BIOTECH CO., LTD., priority 2015, dated 2019):
# Where two headings read alike, the source gives them in different places.
# Columns and labels:
# [1] = test system: LPS-induced expression of TNF-α in rat blood; experiment: In vitro effect of the compound on LPS-induced expression of TNF-α in rat blood (ELISA); format: cell-based, Sprague Dawley rats; design: key to TNF-α inhibitory ratio: 80% ≥ + > 60%; ++ > 80%; — N/A; conditions: final compound concentration 100 μM, 5 hours, plasma TNF-α by ELISA; for inhibition at 100 µM: read-out: TNF-α inhibitory ratio
# Description: Experimental Example 2: In Vitro Evaluation of the Effect of the Compound on LPS-Induced Expression of TNF-α in Rat Blood
# Experimental Objectives: To detect in vitro the effect of the test compound on LPS-induced expression of TNF-α in rat blood and evaluate the inhibitory effect of the compound on LPS-induced expression of TNF-α in rat blood.
# Sprague Dawley rats (male, 210-260 g, 8-10 weeks old, Shanghai Slack)
# Rat TNF-alpha Quantikine ELISA Kit (R & D, #SRTA00)
# A solution of the test compound with a concentration of 1 mM was prepared and 40 μL (final compound concentration was 100 μM) was added to a 48-well cell culture plate. Rats were anesthetized with isoflurane and blood was collected from the heart (heparin anticoagulation). The blood was added to the 48-well cell plate to which the test compound has been added, with 320 μL per well. The 48-well plate was placed in a cell incubator, incubated for 30 minutes and then removed, added with 40 μL LPS solution (100 μg/mL), mixed and placed in the incubator to continue the incubation. 5 hours later, the 48-well plate was removed and the blood sample was transferred to a 1.5 mL centrifuge tube and centrifuged in a centrifuge (4,500 rpm, 4° C., 5 minutes). The plasma was separated from the supernatant, frozen quickly after packing and stored in −80° C. refrigerator. The next day the R&D ELISA kit was used to measure TNF-α levels in plasma samples according to the instructions of the kit.
# [2] = molecular target: T1, Full length human PDE2A protease (Homo sapiens, UniProt O00408); experiment: In vitro evaluation of PDE2 phosphodiesterase inhibitory activity (Transcreener AMP2/GMP2 fluorescence polarization); format: biochemical
# T1 construct: Full length human PDE2A protease; GST (N); host or cells: insect Sf9 cells (baculovirus)
# Procedure: In Vitro Evaluation of PDE2 Phosphodiesterase Inhibitory Activity Experimental objectives: To detect the concentration of AMP/GMP produced in the reaction system by measuring the fluorescence intensity of the fluorescent dye AlexaFluor 633 substituted on AMP/GMP antibody and to calculate the PDE2 phosphodiesterase inhibitory IC50 value of the test compound. Test buffer solution: 10 mM Tris-HCl, pH 7.5, 5 mM MgCl2, 0.01% Brij 35, 1 mM DTT, and 1% DMSO. Enzyme: Full length human PDE2A protease expressed and recombined in insect Sf9 cells with baculovirus using N-terminal GST tag […] Transcreener® AMP^2/GMP^2 antibody, AMP2/GMP2 AlexaFluor 633 fluorescent dye The enzyme solution was prepared with freshly prepared buffer solution and then added to the reaction wells. The DMSO solution of the test compound was added by Echo550 non-contact nanoscale sonicate pipetting system and preincubated for 10 minutes at room temperature. The reaction was initiated by addition of substrate (1 μM cGMP) and allowed to react for one hour at room temperature. The detection system (Transcreener® AMP^2/GMP^2 antibody, AMP2/GMP2 AlexaFluor 633 fluorescent dye) was then added and reacted for 90 minutes at room temperature before fluorescence polarization was detected using Ex/Em 620/688. The intensity of fluorescence polarization was converted to nM concentration by the AMP/GMP standard curve and then relative inhibition of enzyme activity relative to DMSO blank was calculated. IC50 values and curves were calculated using the Prism software package (GraphPad Software, San Diego Calif., USA)
# [3] = recombinant full length human PDE2A, substrate 1 μM cGMP, 1 hour at room temperature, read-out: PDE2 phosphodiesterase inhibitory activity
# T1 sequence (O00408 whole entry): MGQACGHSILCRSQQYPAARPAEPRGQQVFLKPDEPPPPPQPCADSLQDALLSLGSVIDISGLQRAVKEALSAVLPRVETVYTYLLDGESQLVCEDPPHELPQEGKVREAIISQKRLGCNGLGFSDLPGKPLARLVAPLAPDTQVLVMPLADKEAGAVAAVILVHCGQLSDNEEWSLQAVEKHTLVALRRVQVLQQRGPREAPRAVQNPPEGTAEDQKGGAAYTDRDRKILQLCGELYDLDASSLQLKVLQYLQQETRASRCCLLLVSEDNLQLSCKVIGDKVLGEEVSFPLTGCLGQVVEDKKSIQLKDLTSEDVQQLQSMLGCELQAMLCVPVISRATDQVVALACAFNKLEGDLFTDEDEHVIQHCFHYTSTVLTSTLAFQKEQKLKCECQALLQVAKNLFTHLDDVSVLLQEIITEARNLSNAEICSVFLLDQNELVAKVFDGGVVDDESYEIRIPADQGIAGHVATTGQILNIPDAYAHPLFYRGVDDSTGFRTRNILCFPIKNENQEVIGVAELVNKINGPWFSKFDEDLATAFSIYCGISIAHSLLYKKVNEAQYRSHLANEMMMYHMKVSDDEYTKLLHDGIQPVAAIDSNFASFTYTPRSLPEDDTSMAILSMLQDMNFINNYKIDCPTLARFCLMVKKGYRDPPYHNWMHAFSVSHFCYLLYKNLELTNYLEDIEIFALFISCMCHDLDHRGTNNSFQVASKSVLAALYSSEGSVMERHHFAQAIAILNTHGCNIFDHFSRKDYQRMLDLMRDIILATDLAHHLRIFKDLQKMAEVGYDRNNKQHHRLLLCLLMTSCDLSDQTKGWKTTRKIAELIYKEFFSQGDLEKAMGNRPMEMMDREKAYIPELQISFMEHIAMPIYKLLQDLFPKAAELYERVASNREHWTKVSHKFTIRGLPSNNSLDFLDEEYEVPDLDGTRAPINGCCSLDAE
SMILES,TNF-α inhibitory ratio [1],"IC50 [2, 3] [µM]",inhibition at 100 µM [1] [%],IC50 [2] [µM]
"Cn1cnc2c1c(=O)n(CCCN1CCCC1=O)c(=O)n2C [Example 3, 3,7-Dimethyl-1-(3-(2-oxopyrrolidin-1-yl)propyl)-1H-purine-2,6(3H,7H)-dione]",—,,,
"CC(C)c1cc(Cn2c(=O)c3c(ncn3C)n(C)c2=O)on1 [Example 15, 1-((3-Isopropylisoxazol-5-yl)methyl)-3,7-dimethyl-1H-purine-2,6(3H,7H)-dione]",,1 to 10,60 to 80,
"Cc1cc(CCCCn2c(=O)c3c(ncn3C)n(C)c2=O)on1 [Example 19, 3,7-Dimethyl-1-(4-(3-methylisoxazol-5-yl)butyl)-1H-purine-2,6(3H,7H)-dione]",—,,,10 to 50
"Cc1noc(C)c1Cn1c(=O)c2c(ncn2C)n(C)c1=O [Example 25, 1-((3,5-Dimethylisoxazol-4-yl)methyl)-3,7-dimethyl-1H-purine-2,6(3H,7H)-dione]",—,10 to 50,,
"Cc1cc(C2CCC(n3c(=O)c4c(ncn4C)n(C)c3=O)CC2)on1 (centres unmarked) [Example 27, 3,7-Dimethyl-1-(4-(3-methylisoxazol-5-yl)cyclohexyl)-1H-purine-2,6(3H,7H)-dione]",—,10 to 50,,
"Cc1nc(C)c(CCn2c(=O)c3c(ncn3C)n(C)c2=O)s1 [Example 31, 1-(2-(2,4-Dimethylthiazol-5-yl)ethyl)-3,7-dimethyl-1H-purine-2,6(3H,7H)-dione]",—,1 to 10,,
"CC(C)c1cc(Cn2c(=O)c3c(ncn3CC3CC3)n(C)c2=O)on1 [Example 59, 7-(Cyclopropylmethyl)-1-((3-isopropylisoxazol-5-yl)methyl)-3-methyl-1H-purine-2,6(3H,7H)-dione]",,1 to 10,> 80,
"Cc1cc(CCCCn2cnn3cnc(CC(C)C)c3c2=O)on1 [Example 82, 5-isobutyl-3-(4-(3-methylisoxazol-5-yl)butyl)imidazo[5,1-F] [1,2,4]triazin-4-one]",,1 to 10,60 to 80,
"Cc1cc(CCCCn2c(=O)c3cccnc3n(C)c2=O)on1 [Example 89, 1-Methyl-3-[4-(3-methylisoxazol-5-yl)butyl]pyrido[2,3-d]pyrimidine-2,4-dione]",,10 to 50,> 80,
